In patent EP2876105A1, “1-(CYCLOALKYL-CARBONYL)PROLINE DERIVATIVE” (Sumitomo Dainippon Pharma Co., Ltd., priority 2012, dated 2014):

Target: human FXIa (Homo sapiens, UniProt P03951)
Assay: In vitro activated factor XI (FXIa) inhibition test
Format: biochemical
Conditions: not given
Procedure: To the substrate, S-2366 (pyroGlu-Pro-Arg-pNA•HCl) was added to a final concentration of 300 µmol/L. After the reaction had progressed, the absorbance at OD 405 nm was measured. […]

Sequence of human FXIa (P03951 388-625 limits assumed): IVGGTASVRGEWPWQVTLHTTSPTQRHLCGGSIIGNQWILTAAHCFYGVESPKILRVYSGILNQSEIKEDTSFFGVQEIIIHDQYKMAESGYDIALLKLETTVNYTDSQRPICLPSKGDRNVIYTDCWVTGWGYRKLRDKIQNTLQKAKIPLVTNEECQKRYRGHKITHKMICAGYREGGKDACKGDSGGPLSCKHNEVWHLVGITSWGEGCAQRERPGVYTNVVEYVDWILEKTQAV
Sequence of human FXIa (P03951 19-387 partner limits assumed): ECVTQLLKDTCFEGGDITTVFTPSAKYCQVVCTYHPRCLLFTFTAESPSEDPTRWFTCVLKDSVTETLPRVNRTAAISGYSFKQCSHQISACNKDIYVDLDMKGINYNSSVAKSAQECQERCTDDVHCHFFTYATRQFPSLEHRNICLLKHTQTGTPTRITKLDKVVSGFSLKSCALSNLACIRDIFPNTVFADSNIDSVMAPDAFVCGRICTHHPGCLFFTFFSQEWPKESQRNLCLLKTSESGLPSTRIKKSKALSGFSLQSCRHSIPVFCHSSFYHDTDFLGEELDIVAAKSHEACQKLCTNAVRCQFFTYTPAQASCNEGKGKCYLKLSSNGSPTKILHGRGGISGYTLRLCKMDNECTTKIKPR

| Structure (SMILES) | IC50 [nM] |
| --- | --- |
| N[C@H](CF)[C@H]1CC[C@H](C(=O)N2CC[C@@H](C3CCCCC3)[C@H]2C(=O)Nc2ccc(C(=O)NS(=O)(=O)c3ccccn3)cc2)CC1 [compound 134] | 54 |
| NC(CF)[C@H]1CC[C@H](C(=O)N2CC[C@@H](C3CCCCC3)[C@H]2C(=O)Nc2ccc3oc(C(=O)O)cc3c2)CC1 (stereo partly drawn) [compound 50] | 84 |
| N[C@H](CF)[C@H]1CC[C@H](C(=O)N2CC[C@@H](C3CCCCC3)[C@H]2C(=O)Nc2ccc3oc(C(=O)NS(=O)(=O)N4CCOCC4)cc3c2)CC1 [compound 212] | 8 |
| COC1CCC([C@H]2CCN(C(=O)[C@H]3CC[C@H]([C@H](N)CF)CC3)[C@H]2C(=O)Nc2ccc3oc(C(=O)O)cc3c2)CC1 (stereo partly drawn) [compound 187] | 285 |
| N[C@H](CF)[C@H]1CC[C@H](C(=O)N2CC[C@@H](C3CCCCC3)[C@H]2C(=O)Nc2ccc(C(=O)NCc3ccccn3)cc2)CC1 [compound 137] | 380 |
| N[C@H](CF)[C@H]1CC[C@H](C(=O)N2CC[C@@H](C3CCCCC3)[C@H]2C(=O)Nc2ccc3oc(C(=O)NS(=O)(=O)c4ccccc4)cc3c2)CC1 [compound 121] | 43 |
| N[C@H](CF)[C@H]1CC[C@H](C(=O)N2CC[C@H](c3ccccc3)[C@H]2C(=O)Nc2ccc3[nH]c(C(=O)NS(=O)(=O)N4CCOCC4)cc3c2)CC1 [compound 122] | 690 |
| N[C@H](CF)[C@H]1CC[C@H](C(=O)N2CC[C@@H](C3CCCCC3)[C@H]2C(=O)Nc2ccc(C(=O)NS(=O)(=O)c3ccccc3)cc2)CC1 [compound 118] | 65 |
| N[C@H](CF)[C@H]1CC[C@H](C(=O)N2CCC(C3CCCCC3)[C@H]2C(=O)Nc2ccc3sc(C(=O)O)cc3c2)CC1 (single isomer, unassigned) [compound 130] | 195 |
| COC1CCC([C@@H]2CCN(C(=O)[C@H]3CC[C@H]([C@H](N)CF)CC3)[C@@H]2C(=O)Nc2ccc3oc(C(=O)O)cc3c2)CC1 (stereo partly drawn) [compound 102] | 93 |
| COCCOCCCOC(=O)c1cc2cc(NC(=O)[C@@H]3[C@H](C4CCC(OC)CC4)CCN3C(=O)[C@H]3CC[C@H]([C@H](N)CF)CC3)ccc2o1 (stereo partly drawn) [compound 196] | 3500 |

Same assay, conditions: 0.35 µg/mL human FXIa, substrate S-2366 300 µmol/L, 37°C, 10 minutes, OD 405 nm; read-out: FXIa inhibitory activity IC50

| Structure (SMILES) | IC50 [nM] |
| --- | --- |
| N[C@H](CF)[C@H]1CC[C@H](C(=O)N2CC[C@@H](C3CCCCC3)[C@H]2C(=O)Nc2ccc(C(=O)NS(=O)(=O)c3ccccc3)c(F)c2)CC1 [compound 133] | 99 |
| CS(=O)(=O)NC(=O)c1ccc(NC(=O)[C@@H]2[C@H](C3CCCCC3)CCN2C(=O)[C@H]2CC[C@H]([C@H](N)CF)CC2)cc1 [compound 147] | 205 |
| COC(=O)Nc1nc2ccc(NC(=O)[C@@H]3[C@H](C4CCCCC4)CCN3C(=O)[C@H]3CC[C@H]([C@H](N)CF)CC3)cc2s1 [compound 148] | 140 |
| NC(CF)[C@H]1CC[C@H](C(=O)N2CC[C@@H](C3CCCCC3)[C@H]2C(=O)Nc2ccc3[nH]c(C(=O)O)cc3c2)CC1 (stereo partly drawn) [compound 35] | 14 |
| Cn1c(C(=O)O)cc2cc(NC(=O)[C@@H]3[C@H](C4CCCCC4)CCN3C(=O)[C@H]3CC[C@H](C(N)CF)CC3)ccc21 (stereo partly drawn) [compound 29] | 82 |
| N[C@H](CF)[C@H]1CC[C@H](C(=O)N2CC[C@@H](C3CCCCC3)[C@H]2C(=O)Nc2ccc(C(=O)O)cc2)CC1 [compound 96] | 98 |
| COC1CCC([C@@H]2CCN(C(=O)[C@H]3CC[C@H]([C@H](N)CF)CC3)[C@@H]2C(=O)Nc2ccc3oc(C(=O)O)cc3c2)CC1 (stereo partly drawn) [compound 103] | 2350 |
| NC[C@H]1CC[C@H](C(=O)N2CCC(c3ccccc3)[C@H]2C(=O)Nc2ccc3[nH]c(C(N)=O)cc3c2)CC1 (stereo partly drawn) [compound 24] | 34 |
| N[C@H](CF)[C@H]1CC[C@H](C(=O)N2CC[C@@H](C3CCCCC3)[C@H]2C(=O)Nc2ccc3[nH]c(C(=O)O)c(Cl)c3c2)CC1 [compound 184] | 30 |
| Cc1c(C(=O)O)[nH]c2ccc(NC(=O)[C@@H]3[C@H](C4CCCCC4)CCN3C(=O)[C@H]3CC[C@H](C(N)CF)CC3)cc12 (stereo partly drawn) [compound 39] | 63 |
| NC(CF)[C@H]1CC[C@H](C(=O)N2CC[C@@H](C3CCCCC3)[C@H]2C(=O)Nc2ccc3[nH]c(C(=O)O)c(Cl)c3c2)CC1 (stereo partly drawn) [compound 34] | 28 |
| N[C@H](CF)[C@H]1CC[C@H](C(=O)N2CC[C@@H](C3CCCCC3)[C@H]2C(=O)Nc2ccc3[nH]c(C(=O)NS(=O)(=O)N4CCCCC4)cc3c2)CC1 [compound 213] | 10 |
| CC(N)[C@H]1CC[C@H](C(=O)N2CC[C@H](c3ccccc3)[C@H]2C(=O)Nc2ccc3oc(C(=O)O)cc3c2)CC1 (stereo partly drawn) [compound 46] | 90 |
| CN(C)S(=O)(=O)NC(=O)c1cc2cc(NC(=O)[C@@H]3[C@H](C4CCCCC4)CCN3C(=O)[C@H]3CC[C@H]([C@H](N)CF)CC3)ccc2o1 [compound 211] | 29 |
| CS(=O)(=O)NC(=O)c1cc2cc(NC(=O)[C@@H]3[C@H](C4CCCCC4)CCN3C(=O)[C@H]3CC[C@H]([C@H](N)CF)CC3)ccc2[nH]1 [compound 114] | 7 |
| NC[C@H]1CC[C@H](C(=O)N2CC[C@@H](c3ccccc3)[C@H]2C(=O)Nc2ccc(-c3nc(=O)o[nH]3)c(F)c2)CC1 [compound 14] | 130 |
| N[C@H](C(F)F)[C@H]1CC[C@H](C(=O)N2CC[C@@H](C3CCCCC3)[C@H]2C(=O)Nc2ccc3oc(C(=O)O)cc3c2)CC1 [compound 146] | 916 |
| Cc1c(C(=O)O)oc2ccc(NC(=O)[C@@H]3[C@H](C4CCCCC4)CCN3C(=O)[C@H]3CC[C@H]([C@H](N)CF)CC3)cc12 [compound 55] | 220 |
| Cc1noc(-c2ccc(NC(=O)[C@@H]3[C@H](C4CCCCC4)CCN3C(=O)[C@H]3CC[C@H]([C@H](N)CF)CC3)cc2)n1 [compound 115] | 1500 |
